According to BindingDB's records for doi:10.1016/j.chembiol.2013.08.005 (University of California San Francisco, 2013):

Columns and labels:
Urea transporter 1 = biological target: T1, Urea transporter 1 (Rattus norvegicus, UniProt P97689); experiment: UT-B Inhibition Assay
T1 sequence (P97689 whole entry): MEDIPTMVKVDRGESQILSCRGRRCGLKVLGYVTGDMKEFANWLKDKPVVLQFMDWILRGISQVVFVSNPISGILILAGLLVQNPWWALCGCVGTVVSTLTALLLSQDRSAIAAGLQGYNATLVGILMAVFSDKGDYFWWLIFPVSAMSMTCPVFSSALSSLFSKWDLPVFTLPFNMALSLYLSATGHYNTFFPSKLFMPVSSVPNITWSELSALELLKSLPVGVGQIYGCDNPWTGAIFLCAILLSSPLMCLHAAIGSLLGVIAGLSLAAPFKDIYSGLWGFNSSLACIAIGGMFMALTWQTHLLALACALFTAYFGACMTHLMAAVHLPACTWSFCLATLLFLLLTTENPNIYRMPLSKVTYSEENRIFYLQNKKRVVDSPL
Protocol: Erythrocyte suspension (100 µL) was added to each well of a 96-well microplate to which test compounds were added. After 15 min incubation, 20 µL of the erythrocyte suspension was added to each well of a 96-well plate containing 180 µL PBS containing 1% DMSO, followed by vigorous mixing. The absorbance was measured at 710 nm.

Urea transporter 2 = biological target: T2, Urea transporter 2 (Rattus norvegicus, UniProt Q62668); experiment: UT-A1 Inhibition Assay
T2 sequence (Q62668 whole entry): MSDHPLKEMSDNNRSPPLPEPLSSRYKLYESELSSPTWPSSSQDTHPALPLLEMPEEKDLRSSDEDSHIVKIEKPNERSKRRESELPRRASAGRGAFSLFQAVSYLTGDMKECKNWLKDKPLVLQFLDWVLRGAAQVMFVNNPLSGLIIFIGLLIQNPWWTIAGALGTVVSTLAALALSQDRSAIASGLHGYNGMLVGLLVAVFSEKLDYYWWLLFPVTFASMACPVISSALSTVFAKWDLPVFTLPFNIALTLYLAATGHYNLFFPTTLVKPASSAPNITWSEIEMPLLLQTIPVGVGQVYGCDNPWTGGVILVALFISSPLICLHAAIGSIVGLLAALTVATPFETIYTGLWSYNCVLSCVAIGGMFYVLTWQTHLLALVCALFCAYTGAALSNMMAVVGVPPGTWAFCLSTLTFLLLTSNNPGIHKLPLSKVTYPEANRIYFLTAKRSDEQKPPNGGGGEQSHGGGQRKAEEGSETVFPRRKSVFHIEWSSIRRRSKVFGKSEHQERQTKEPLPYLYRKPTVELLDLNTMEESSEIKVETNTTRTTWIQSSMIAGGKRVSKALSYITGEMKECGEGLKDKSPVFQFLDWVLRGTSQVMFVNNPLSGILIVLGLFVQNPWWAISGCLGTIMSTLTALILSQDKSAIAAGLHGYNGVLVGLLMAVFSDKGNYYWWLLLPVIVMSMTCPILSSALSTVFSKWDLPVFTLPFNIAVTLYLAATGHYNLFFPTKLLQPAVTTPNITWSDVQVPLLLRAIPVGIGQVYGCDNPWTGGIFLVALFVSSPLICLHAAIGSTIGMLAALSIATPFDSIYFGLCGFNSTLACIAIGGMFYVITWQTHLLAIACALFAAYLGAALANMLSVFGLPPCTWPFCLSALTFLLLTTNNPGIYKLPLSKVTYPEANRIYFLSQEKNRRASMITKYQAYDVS
Protocol: The urea concentration dependence of UT-A1 inhibition was studied from inhibitor concentration response data (0.3 - 60 µM) using different of urea gradients (200 - 1,600 mM). The kinetics of UT-A1 inhibition was measured by adding inhibitors (3 µM) at different times prior to assay.

Row | IC50 (Urea transporter 1) [µM] | IC50 (Urea transporter 2) [µM] | Structure (SMILES)
1 | 34 | 24 | CCOc1ccc(Nc2cc(C(=O)N3CCSCC3)nc3c(OC)cccc23)cc1 [N‐(4‐ethoxyphenyl)‐8‐methoxy‐2‐(thiomorpholine‐4‐ carbonyl)quinolin‐4‐amine]
2 | > 50 | 25 | COc1cccc2c(Nc3ccc(C)c(F)c3)cc(C(=O)N3CCCCC3)nc12 [N‐(3‐fluoro‐4‐methylphenyl)‐8‐methoxy‐2‐ (piperidine‐1‐carbonyl)quinolin‐4‐amine]
3 | 6.3 | 4.6 | COc1cccc(/C=C2/SC(=N)NC2=O)c1O [(5E)‐5‐[(2‐hydroxy‐3‐methoxyphenyl)methylidene]‐2‐ imino‐1,3‐thiazolidin‐4‐one]
4 | 43 | 7 | [H]/N=C1/NC(=O)/C(=C\c2cccc(OC)c2OC)S1 [(5E)‐5‐[(2,3‐dimethoxyphenyl)methylidene]‐2‐imino‐1,3‐thiazolidin‐4‐one]
5 | 35 | > 50 | CNc1nc2c(S(=O)(=O)c3ccccc3)nnn2c2ccsc12 [UT-A1 inhibitor D2]
6 | 16 | 3.3 | CCOc1ccc(Nc2cc(C(=O)N3CCCCC3)nc3c(OC)cccc23)cc1 [N‐(4‐ethoxyphenyl)‐8‐methoxy‐2‐(piperidine‐1‐ carbonyl)quinolin‐4‐amine]
7 | 27 | 19 | COc1ccc(Nc2cc(C(=O)N3CCSCC3)nc3c(OC)cccc23)cc1Cl [N‐(3‐chloro‐4‐methoxyphenyl)‐8‐methoxy‐2‐ (thiomorpholine‐4‐carbonyl)quinolin‐4‐amine]
8 | > 50 | 24 | COc1cccc2c(Nc3ccc(C)c(Cl)c3)cc(C(=O)N3CCCCC3)nc12 [N‐(3‐chloro‐4‐methylphenyl)‐8‐methoxy‐2‐ (piperidine‐1‐carbonyl)quinolin‐4‐amine]
9 | 6.2 | 25 | COc1cc(/C=C2/SC(=N)NC2=O)ccc1O [(5E)‐5‐[(4‐hydroxy‐3‐methoxyphenyl)methylidene]‐2‐ imino‐1,3‐thiazolidin‐4‐one]

Further lines, the molecule ahead of its results:

Row | Structure (SMILES) | IC50 (Urea transporter 1) [µM] | IC50 (Urea transporter 2) [µM]
10 | CSc1nc(Nc2ccc(Nc3ccccc3)cc2)nc(SC)n1 [1‐N‐[bis(methylsulfanyl)‐1,3,5‐triazin‐2‐yl]‐4‐N‐ phenylbenzene‐1,4‐diamine] | > 50 | 45
11 | COc1cccc(CNC(=O)c2ccc3cccc(O)c3n2)c1 [8‐hydroxy‐N‐[(3‐methoxyphenyl)methyl]quinoline‐2‐carboxamide] | > 50 | –
12 | COc1cccc(Nc2nc(Nc3ccc(C)cc3)nc(Sc3ccc(C)cc3)n2)c1 [2‐N‐(3‐methoxyphenyl)‐4‐N‐(4‐methylphenyl)‐6‐[(4‐ methylphenyl)sulfanyl]‐1,3,5‐triazine‐2,4‐diamine] | 42 | > 50
13 | CC(=O)OCCOc1ccccc1/C=C1/SC(=N)NC1=O [2‐(2‐{[(5E)‐2‐imino‐4‐oxo‐1,3‐thiazolidin‐5‐ ylidene]methyl}phenoxy)ethyl acetate] | 4.8 | 3.7
14 | Cc1ccc(C)c(S(=O)(=O)c2nnn3c2nc(NC(C)C)c2sccc23)c1 | 15 | 3.8
15 | COc1cccc2c(Nc3cccc(SC)c3)cc(C(=O)N3CCCCC3)nc12 [8‐methoxy‐N‐[3‐(methylsulfanyl)phenyl]‐2‐ (piperidine‐1‐carbonyl)quinolin‐4‐amine] | 20 | 3.8
16 | O=S(=O)(c1ccc(Br)cc1)c1nnn2c1nc(N=S1C=CC=C1)c1sccc12 [10‐(4‐bromobenzenesulfonyl)‐N‐[(1Z)‐1λ⁴‐thiophen‐1‐ ylidene]‐5‐thia‐1,8,11,12‐ tetraazatricyclo[7.3.0.0 ,⁶]dodeca‐2(6),3,7,9,11‐ pentaen‐7‐amine] | 2.8 | > 50
17 | COc1ccc(Nc2cc(C(=O)N3CCSCC3)nc3c(OC)cccc23)cc1 [8‐methoxy‐N‐(4‐methoxyphenyl)‐2‐(thiomorpholine‐4‐ carbonyl)quinolin‐4‐amine] | 6.2 | 3.5
18 | CCc1ccc(S(=O)(=O)c2nnn3c2nc(NCCCOC)c2sccc23)cc1 | 28 | > 50
